# Tested on: serum cytokine/chemokine/growth factor/ligands of ALS patient
# Experiment: Serum Luminex, before and after NAC treatment
# Assay type: in vivo, human
# Procedure: (§1) Serum Luminex. Serum from patients were used to determine the levels of cytokine/chemokine/growth factor/ligands secretion using multiplex luminex assay. Scatter plot was prepared using the levels of cytokine/chemokine/growth factor/ligands in serum obtained at different dates from patients as compared to controls.
# Serum Luminex. Serum from patients were used to determine the levels of cytokine/chemokine/growth factor/ligands secretion using multiplex luminex assay.
# as §1
# [1] = H110 RS post NAC (second line, continues Table 138A)
# [2] = JC sera Apr. 5, 2020 (NAC infusion)
# [3] = JC sera Apr. 16, 2020 (NAC infusion)
# [4] = JC sera Apr. 23, 2020 (NAC infusion)
structure (smiles),measurement,setting,value
"CC(=O)N[C@@H](CS)C(=O)O [NAC, N-Acetyl-Cysteine]",TNFa,[1],30.58 pg/mL
same,TNFb,[1],6.89 pg/mL
same,VEGF,[1],247.51 pg/mL
same,sCD40L,[1],3545 pg/mL
same,EGF,"H110 RS post NAC, Aug. 8, 2019",21.91 pg/mL
same,Eotaxin,"H110 RS post NAC, Aug. 8, 2019",116.77 pg/mL
same,FGF2,"H110 RS post NAC, Aug. 8, 2019",44.55 pg/mL
same,FIT3L,"H110 RS post NAC, Aug. 8, 2019",15.11 pg/mL
same,Fractalkine,"H110 RS post NAC, Aug. 8, 2019",61.83 pg/mL
same,GCSF,"H110 RS post NAC, Aug. 8, 2019",6131 pg/mL
same,GMCSF,"H110 RS post NAC, Aug. 8, 2019",26.68 pg/mL
same,IFNa2,"H110 RS post NAC, Aug. 8, 2019",31.31 pg/mL
same,TGFa,"H110 RS post NAC, Aug. 8, 2019",22.12 pg/mL
same,IL-2,"JC sera Apr. 5, 2020",0.14 pg/mL
same,IL-4,"JC sera Apr. 5, 2020",18.46 pg/mL
same,IL-5,"JC sera Apr. 5, 2020",2.64 pg/mL
same,IL-6,"JC sera Apr. 5, 2020",2.74 pg/mL
same,IL-7,"JC sera Apr. 5, 2020",5.61 pg/mL
same,IL-8,"JC sera Apr. 5, 2020",5.32 pg/mL
same,IL-21,"JC sera Apr. 5, 2020",0.82 pg/mL
same,IL-23,"JC sera Apr. 5, 2020",144.83 pg/mL
same,MIP-1a,"JC sera Apr. 5, 2020",11.35 pg/mL
same,MIP-1b,"JC sera Apr. 5, 2020",24.47 pg/mL
same,TNFa,"JC sera Apr. 5, 2020",9.39 pg/mL
same,Franktalkine,[2],39.54 pg/mL
same,GM-CSF,[2],91.74 pg/mL
same,IFNg,[2],11.6 pg/mL
same,IL-1b,[2],0.87 pg/mL
same,IL-10,[2],8.12 pg/mL
same,IL-12p70,[2],2.32 pg/mL
same,IL-13,[2],4.83 pg/mL
same,IL-17A,[2],6.07 pg/mL
same,ITAC,[2],18.73 pg/mL
same,MIP-3a,[2],11.35 pg/mL
same,IL-2,"JC sera Apr. 16, 2020",0.32 pg/mL
same,IL-4,"JC sera Apr. 16, 2020",11.22 pg/mL
same,IL-5,"JC sera Apr. 16, 2020",2.21 pg/mL
same,IL-7,"JC sera Apr. 16, 2020",4.9 pg/mL
same,IL-8,"JC sera Apr. 16, 2020",3.55 pg/mL
same,IL-21,"JC sera Apr. 16, 2020",0.62 pg/mL
same,IL-23,"JC sera Apr. 16, 2020",116.26 pg/mL
same,MIP-1a,"JC sera Apr. 16, 2020",10.8 pg/mL
same,MIP-1b,"JC sera Apr. 16, 2020",18.56 pg/mL
same,TNFa,"JC sera Apr. 16, 2020",7.45 pg/mL
same,Franktalkine,[3],33.33 pg/mL
same,GM-CSF,[3],54.8 pg/mL
same,IFNg,[3],7.11 pg/mL
same,IL-1b,[3],0.65 pg/mL
same,IL-10,[3],4.47 pg/mL
same,IL-12p70,[3],2.1 pg/mL
same,IL-13,[3],4.44 pg/mL
same,IL-17A,[3],3.15 pg/mL
same,ITAC,[3],11.26 pg/mL
same,MIP-3a,[3],5.58 pg/mL
same,IL-2,"JC sera Apr. 23, 2020",5.42 pg/mL
same,IL-4,"JC sera Apr. 23, 2020",15.94 pg/mL
same,IL-5,"JC sera Apr. 23, 2020",2.21 pg/mL
same,IL-7,"JC sera Apr. 23, 2020",6.39 pg/mL
same,IL-8,"JC sera Apr. 23, 2020",3.72 pg/mL
same,IL-21,"JC sera Apr. 23, 2020",0.68 pg/mL
same,IL-23,"JC sera Apr. 23, 2020",132.6 pg/mL
same,MIP-1a,"JC sera Apr. 23, 2020",11.24 pg/mL
same,MIP-1b,"JC sera Apr. 23, 2020",16.32 pg/mL
same,TNFa,"JC sera Apr. 23, 2020",7.45 pg/mL
same,Franktalkine,[4],34.75 pg/mL
same,GM-CSF,[4],84.17 pg/mL
same,IFNg,[4],6.15 pg/mL
same,IL-1b,[4],0.77 pg/mL
same,IL-10,[4],6 pg/mL
same,IL-12p70,[4],2 pg/mL
same,IL-13,[4],4.17 pg/mL
same,IL-17A,[4],2.78 pg/mL
same,ITAC,[4],10.71 pg/mL
same,MIP-3a,[4],6.78 pg/mL
same,IL-2,"JC sera Apr. 30, 2020",0.06 pg/mL
same,IL-4,"JC sera Apr. 30, 2020",14.43 pg/mL

# Source: patent publication US20240245770A1, “COMPOSITIONS AND METHODS FOR TREATING NEUROMUSCULAR DISORDERS” (The Regents of the University of California, priority 2019, published 2024)
